In patent US20250312314A1, “METHOD AND COMPOSITION FOR IMPROVING OR MAINTAINING SKIN HEALTH OF MAMMALS” (NANJING NUTRABUILDING BIO-TECH CO., LTD., priority 2022, published 2025):

Columns and labels:
Streptococcus = assay: Relative abundance of Streptococcus in skin of subjects after applying EGT base cream (16S rRNA); assay type: in vivo, human; conditions: once a day for 4 weeks
Description: (§1) Thirty healthy women aged 20-59 were randomly divided into three groups. The first group (0% EGT, n=10) was applied with pure base cream as the control group, the second group (5% EGT, n=10) was applied with base cream mixed with 5% ergothioneine, and the third group (10% EGT, n=10) was applied with base cream mixed with 10% ergothioneine. The applying was performed once a day for 4 weeks. Skin microorganisms were collected on the 0 th and 28 th days respectively, and the elasticity, moisture and desquamation of the skin of the subjects were measured on the 28 th day. Sterile water was used to wash Participants' faces and then applied on solid trypsin soy agar (TSA) medium. Individual colonies were collected and cultured in liquid trypsin soy broth (TSB) medium at 37° C. for 72 hours.
Each sample was centrifuged and the precipitate was collected, and the microbial DNA in the precipitate was extracted with a specific kit. The purity and quantity of DNA were measured by spectrophotometer. The 16S rRNA gene of bacteria was amplified with the following primers: forward, 5′-[…]-3′ (SEQ ID NO: 1); reverse, 5′-[…]-3′ (SEQ ID NO: 2). PCR was carried out in a 25 μL reactor, which contained 2 μL genomic DNA (10 ng/μL), 0.5 μL primers (10 μM), 12.5 μL 2×KAPA HiFi HotStart Ready Mix and 9.5 μL distilled water. […]

Propionibacterium acnes = assay: Microbial colonization of reconstructed layered human epidermis, live count; assay type: cell-based; conditions: 24±2 h
Description: (§2) Primary adult human skin fibroblasts were embedded in fibrin matrix to produce dermal equivalent. The dermal equivalent was cultured to allow fibroblasts to reconstruct matrix. Primary neonatal human keratinocytes were applied on the surface of dermal equivalent and cultured in liquid for 48 hours. Culture was carried out on the air-liquid interface (ALI) until a layered epidermis was formed.
(§3) Staphylococcus epidermidis, Corynebacterium spp., Cutibacterium spp., Propionibacterium acnes and Malassezia were cultured in proper culture medium and incubation conditions (37±2° C., 5±1% (v/v) CO2, ≥95% RH). Inoculation buffer (GS25) was used to prepare inoculum containing about 1.1×10^6 cfu mL^−1 microbial flora of the above bacteria. 10 μL of the mixture was used for skin (layered epidermis) colonization, and each unit was colonized with about 10^4 cfu·cm^−2 of each bacterium. After that, the layered epidermis was incubated at 37±2° C., 5±1% (v/v) CO2, ≥95% RH for 3±1 hours.
(§4) α-Glucan Oligosaccharide (α-GO for short) is a famous prebiotic, which can protect skin health by maintaining the balance of microbial population and strengthening the microbial barrier of skin, so the experiment took it as a control. Control (α-GO, 1 μM) and EGT (0 μM, 0.1 μM, 1 μM, 10 μM, 100 μM, 1000 μM) were applied on the layered epidermis respectively, and then incubated for 24±2 hours at 37±2° C., 5±1% (v/v) CO2 and ≥95% RH. Then, the above five kinds of microorganisms were counted respectively to evaluate the inhibitory effect of α-GO and EGT on microbial growth: 8 mm live tissue slices were taken from layered epidermis, and the number of live bacteria (cfu·cm^−2) was evaluated by incubation on appropriate selective solid medium. The choice of solid medium is based on the characteristics of microorganisms themselves.

Malassezia = assay: as above; assay type: cell-based; conditions: 24±2 h
Description: as §2, §3, §4

Cutibacterium spp. = assay: as above; assay type: cell-based; conditions: 24±2 h
Description: as §2, §3, §4

Corynebacterium spp. = assay: as above; assay type: cell-based; conditions: 24±2 h
Description: as §2, §3, §4

[1] = tested on: Staphylococcus epidermidis; assay: as above; assay type: cell-based; conditions: 24±2 h
Description: as §2, §3, §4

[2] = Elasticity, moisture and desquamation of skin of subjects after applying EGT base cream; assay type: in vivo, human; conditions: once a day for 4 weeks, day 28
Description: as §1

[3] = EGT 0.1-1000 μM, effect more significant with increasing concentration

C[N+](C)(C)[C@@H](Cc1c[nH]c(=S)[nH]1)C(=O)[O-] [EGT, Ergothioneine]
effect on relative abundance of Streptococcus, 10% EGT group compared with 5% EGT (Streptococcus; 10% EGT base cream): more obvious | relative abundance (RA) of Streptococcus in skin vs pure base cream group (Streptococcus; EGT base cream (5% and 10%), healthy women): more abundant | colonization of Propionibacterium acnes in the layered epidermis (live bacteria count) (Propionibacterium acnes; [3]): obviously inhibited | inhibitory effect on Propionibacterium acnes compared with α-GO (Propionibacterium acnes; same concentration (1 μM)): better inhibitory effect | colonization of Malassezia in the layered epidermis (live count) (Malassezia; [3]): obviously inhibited | inhibitory effect on Malassezia compared with α-GO (Malassezia; same concentration (1 μM)): better inhibitory effect | colonization of Cutibacterium spp. in the layered epidermis (live bacteria count) (Cutibacterium spp.; [3]): obviously inhibited | inhibitory effect on Cutibacterium spp. compared with α-GO (Cutibacterium spp.; same concentration (1 μM)): better inhibitory effect | colonization of Corynebacterium spp. in the layered epidermis (live bacteria count) (Corynebacterium spp.; [3]): obviously inhibited | inhibitory effect on Corynebacterium spp. compared with α-GO (Corynebacterium spp.; same concentration (1 μM)): better inhibitory effect | colonization of Staphylococcus epidermidis in the layered epidermis (live bacteria count) [1, 3]: obviously inhibited | inhibitory effect on Staphylococcus epidermidis compared with α-GO ([1]; same concentration (1 μM)): better inhibitory effect | increase of skin elasticity compared with 0% EGT group ([2]; 10% EGT base cream): about 20% | increase of skin moisture compared with 0% EGT group ([2]; 10% EGT base cream): about 45% | reduction of desquamation compared with 0% EGT group ([2]; 10% EGT base cream): about 30% | skin desquamation ([2]; EGT base cream (5% and 10%)): avoid the problem of skin desquamation | skin elasticity ([2]; EGT base cream (5% and 10%)): significantly increase | skin moisture ([2]; EGT base cream (5% and 10%)): significantly increase
